The values below come from publication PMC6409996, “Pharmacodynamics and Pharmacokinetics of a New Type of Compound Lansoprazole Capsule in Gastric Ulcer Rats and Beagle Dogs: Importance of Adjusting Oxidative Stress and Inflammation” (Pharmaceutics, 2019).

Bounds are passed on as bounds.

In data set [1] the test system is glacial acetic-acid-induced gastric ulcer. The experiment in a line: Macroscopic gastric ulcer assay in the glacial acetic-acid-induced gastric ulcer model. In kind it is in vivo, rat. As for the experimental part:
The gastric ulcer index (UI) was the total area of ulcer. The gastroprotection (%) was calculated and used for macroscopic gastric ulcer assay.

Data set [2] shares this test system. The experiment in a line: Histopathological observation (H&E) of gastric mucosa, glacial acetic-acid-induced gastric ulcer. The settings on record: treatment with LSZ compared to the model group. In kind it is in vivo, rat. As for the experimental part: Cross-sections with a thickness of 4 µm were then papered for hematoxylin and eosin (H&E) staining. All specimens were assessed under a light microscopy.

The subject of data set [3] is VEGF. Briefly: Immunohistochemistry evaluation of gastric tissue for VEGF. In kind it is in vivo, rat. As to conditions: the LSZ group, p < 0.01. The procedure:
(§1) Gastric tissues were post fixed in 4% paraformaldehyde overnight at 4 °C before routine paraffin sections (4 μm) were prepared for immunohistochemical staining. Paraffin-embedded slices of tissues were incubated overnight at 4 °C with primary rabbit anti-VEGF and anti-COX-2 antibody (1:200, Thermo). After rinsing, sections were incubated in biotinylated goat anti-rabbit IgG (1:200, Maixin) at 37 °C for 30 min and were subsequently incubated in streptavidin-peroxidase conjugate (1:200, Maixin) at 37 °C for 30 min. The sections were developed with 3,3′-diaminobenzidine (DAB) in a chromogen solution and counter-stained with hematoxylin. Images were obtained using an Olympus BX-61microscope (Tokyo, Japan).

The subject of data set [4] is COX-2. Briefly: Immunohistochemistry evaluation of gastric tissue for COX-2. The data set is classed as in vivo, rat. The settings on record: the LSZ group, p < 0.01. As for the experimental part: as §1
In data set [5] the test system is VEGF. The experiment in a line: Western blotting determination of gastric tissue for VEGF. In kind it is in vivo, rat. The settings on record: LSZ versus model group, p < 0.01. As for the experimental part:
(§2) The homogenate was centrifuged at a force of 12,000 g for 30 min at 4 °C and protein qualification was carried out using a BCA kit. The total protein extract (25 μg per lane) was separated on SDS-polyacrylamide gels and transferred onto PVDF membranes. Nonspecific binding sites on the membrane were blocked by PBS containing 0.1% Tween-20 with 5% bovine serum albumin, which was followed by incubation with rabbit polyclonal primary antibodies against VEGF and COX-2 and β-actin overnight at 4 °C. Immunoreactive bands were visualized using the enhanced chemiluminescent kit. Bands were measured using the Quality One analysis software and the density of each band was normalized to β-actin.
For orientation: A western blot detects proteins with antibodies after separation by electrophoresis.

The subject of data set [6] is COX-2. The experiment in a line: Western blotting determination of gastric tissue for COX-2. The data set is classed as in vivo, rat. As to conditions: LSZ versus model group, p < 0.01. The procedure:
as §2

Data set [7] in a line: Stability of lansoprazole in dog plasma (method validation). The data set is classed as in vitro ADME. The settings on record: n = 3. The source says:
The method was fully validated in accordance with the US Food and Drug Administration (FDA) guidelines. Specificity, linearity, LLOQ, precision, accuracy, recovery, matrix effect and stability were all experimentally investigated.

For data set [8] the following is noted: capsules containing enteric-coated granules; cited from earlier work.
In data set [9] the test system is SOD. The experiment in a line: Measurement of SOD level in gastric ulcer rats. The settings on record: 2.7 mg/kg, seven consecutive days, mean ± SD, n = 6.
In data set [10] the target is H^+-K^+-ATP enzyme (Rattus norvegicus, UniProt P09626). Briefly: Measurement of H+-K+-ATP enzyme activity in gastric ulcer rats. As to conditions: 2.7 mg/kg, seven consecutive days, mean ± SD, n = 6.
Chain of H^+-K^+-ATP enzyme (P09626 whole entry): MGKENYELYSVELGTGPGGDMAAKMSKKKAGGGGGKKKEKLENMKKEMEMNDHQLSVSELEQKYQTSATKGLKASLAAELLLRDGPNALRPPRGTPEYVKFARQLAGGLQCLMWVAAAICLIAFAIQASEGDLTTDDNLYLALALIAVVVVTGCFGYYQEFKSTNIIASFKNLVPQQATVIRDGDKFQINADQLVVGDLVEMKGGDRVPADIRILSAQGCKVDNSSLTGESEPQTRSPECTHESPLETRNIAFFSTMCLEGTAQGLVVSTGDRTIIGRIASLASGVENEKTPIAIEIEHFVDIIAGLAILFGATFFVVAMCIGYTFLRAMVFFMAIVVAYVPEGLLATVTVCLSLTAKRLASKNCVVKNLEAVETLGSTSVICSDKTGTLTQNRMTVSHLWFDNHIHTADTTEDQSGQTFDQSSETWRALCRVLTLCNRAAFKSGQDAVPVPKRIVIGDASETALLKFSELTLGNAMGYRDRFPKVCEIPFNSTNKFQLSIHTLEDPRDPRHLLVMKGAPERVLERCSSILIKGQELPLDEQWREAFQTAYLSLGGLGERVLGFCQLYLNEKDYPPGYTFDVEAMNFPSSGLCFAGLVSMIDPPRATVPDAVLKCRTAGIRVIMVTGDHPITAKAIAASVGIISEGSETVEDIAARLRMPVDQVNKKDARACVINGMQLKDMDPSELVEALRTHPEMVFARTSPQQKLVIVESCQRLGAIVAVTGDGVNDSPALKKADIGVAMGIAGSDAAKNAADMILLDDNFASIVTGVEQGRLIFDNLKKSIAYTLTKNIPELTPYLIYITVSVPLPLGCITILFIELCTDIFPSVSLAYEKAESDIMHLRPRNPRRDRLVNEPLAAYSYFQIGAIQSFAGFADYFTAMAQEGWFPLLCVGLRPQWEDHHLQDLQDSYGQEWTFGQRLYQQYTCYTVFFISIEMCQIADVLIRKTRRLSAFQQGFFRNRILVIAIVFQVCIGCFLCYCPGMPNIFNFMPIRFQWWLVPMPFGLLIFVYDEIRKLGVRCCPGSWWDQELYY
Chain of H^+-K^+-ATP enzyme (P18598 whole entry partner): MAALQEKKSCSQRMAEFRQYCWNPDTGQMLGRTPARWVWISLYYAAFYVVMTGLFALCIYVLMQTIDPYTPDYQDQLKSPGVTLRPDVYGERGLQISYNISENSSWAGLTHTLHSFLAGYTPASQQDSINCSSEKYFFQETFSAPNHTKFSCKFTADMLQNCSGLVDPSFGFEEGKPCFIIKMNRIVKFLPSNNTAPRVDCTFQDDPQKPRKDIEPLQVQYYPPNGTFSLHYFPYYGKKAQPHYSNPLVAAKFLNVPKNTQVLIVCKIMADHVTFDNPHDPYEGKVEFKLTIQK
Data set [11] concerns MDA. The experiment in a line: Measurement of MDA (lipid peroxidation, TBARS) in gastric ulcer rats. As to conditions: 2.7 mg/kg, seven consecutive days, mean ± SD, n = 6.
[12] abbreviates: nominal concentration 10 ng·mL^−1.
Setting [13] is: nominal concentration 125 ng·mL^−1.
[14] abbreviates: nominal concentration 2000 ng·mL^−1.

Turning to `Cc1c(OCC(F)(F)F)ccnc1C[S+]([O-])c1nc2ccccc2[nH]1` (stereo not drawn) [LSZ, Lansoprazole], in data set [1] (rats, intragastric, 2.7 mg/kg, seven consecutive days), the “Gastroprotection (%)” value is 29.8%. In [1] (rats, intragastric, 2.7 mg/kg, seven consecutive days, UI = total area of ulcer, mean ± SD, n = 6), this compound returned a UI of 28.30 ± 7.29. In data set [1] (treatment with LSZ compared to the model group), the Macroscopic gastric lesions result was “significantly reduced”. Further, the “Histological evaluation of gastric mucosa (submucosal edema, epithelial cell loss)” value in data set [2] was “protective effect on gastric mucosa”. The “Expression of VEGF (immunohistochemistry)” value in [3] was “increased expression”. Besides, the “Expression of COX-2 (immunohistochemistry)” value in data set [4] is “increased expression”. The “Expression of VEGF protein (Western blot)” value in [5] was “significantly increase”. The “Expression of COX-2 protein (Western blot)” value in data set [6] is on record as “significantly increase”. Besides, in data set [7] (setting [12]), the “Stability in dog plasma, 3 Freeze-Thaw Cycles” value is on record as 9.64; the “Stability in dog plasma, 45 Days, −20 °C” value worked out at 9.11; the “Stability in dog plasma, 10 h, 4 °C” value amounted to 9.35; the “Stability in dog plasma, 24 h, Room Temperature” value (shortened to “Stability in dog plasma, 24 h”) is reported as 10.00. In data set [7] (setting [13]), the “Stability in dog plasma, 3 Freeze-Thaw Cycles” value is listed as 119.79; the “Stability in dog plasma, 45 Days, −20 °C” value was determined as 123.82; the “Stability in dog plasma, 10 h, 4 °C” value amounted to 124.51; the “Stability in dog plasma, 24 h” value was determined as 132.80. For the same compound, in data set [7] (setting [14]), the “Stability in dog plasma, 3 Freeze-Thaw Cycles” value was 2128.46; the “Stability in dog plasma, 45 Days, −20 °C” value is on record as 1853.17; the “Stability in dog plasma, 10 h, 4 °C” value stood at 2088.22; the “Stability in dog plasma, 24 h” value is reported as 2024.38. In addition, in [8], the “Time of peak concentration after oral administration” value is reported as at most 1 ± 2 h. Further, the SOD in data set [9] is 170.12 ± 13.19 μmol*g^−1 Pro. In data set [10], the “H^+-K^+-ATP enzyme activity” value was determined as 7.91 ± 0.76 mmol/g/h. Moreover, the MDA in [11] was 75.32 ± 10.77 μmol*g^−1 Pro.
